# Strand notation (5' to 3'): a small letter for the sugar, then the base; units joined by * are phosphorothioate-linked, units joined directly phosphodiester-linked; [ ] holds rarer units or linkages, { } end groups; capitals alone tell only the bases. e = 2'-O-(2-methoxyethyl) (MOE); k = constrained ethyl (cEt); [5mC] = 5-methylcytosine; d = 2'-deoxy (DNA)
# Tested on: human PKK mRNA
# Assay: Antisense inhibition of human PKK mRNA in HepaRG cells, 1,000 nM, MOE/deoxy/cEt oligonucleotides (Example 3)
# Format: cell-based
# Details: HepaRG cells, 1,000 nM antisense oligonucleotide, Table 29
# In short: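 HepaRG cells at 20,000 per well electroporated with 1,000 nM 16-mer MOE/cEt/deoxy gapmers (phosphorothioate, 5-methylcytosine). After about 24 h, PKK mRNA measured by qRT-PCR with primer probe set RTS3454, normalized to RIBOGREEN total RNA. Reported as percent inhibition versus untreated cells.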
row,Substance,% inhibition [%]
1,548536 (antisense eT*e[5mC]*kT*d[5mC]*dA*dA*dT*d[5mC]*d[5mC]*d[5mC]*dA*dA*d[5mC]*k[5mC]*k[5mC]*e[5mC]) [compound 548536],0
2,548537 (antisense e[5mC]*e[5mC]*kT*d[5mC]*dA*dA*dT*d[5mC]*d[5mC]*d[5mC]*dA*dA*d[5mC]*k[5mC]*k[5mC]*eA) [compound 548537],0
3,548538 (antisense eT*eA*kG*dT*dG*dG*d[5mC]*dA*dA*dG*dA*dA*d[5mC]*k[5mC]*kA*e[5mC]) [compound 548538],0
4,548539 (antisense e[5mC]*eG*k[5mC]*dG*d[5mC]*dG*dA*dA*dT*dG*d[5mC]*d[5mC]*dT*kG*k[5mC]*e[5mC]) [compound 548539],41
5,548540 (antisense eG*eA*k[5mC]*dA*d[5mC]*d[5mC]*dT*dG*d[5mC]*dT*dT*dG*dA*kT*kT*eA) [compound 548540],7
6,548541 (antisense eG*eG*k[5mC]*dA*d[5mC]*dT*dG*dG*dT*d[5mC]*dA*dT*dG*kG*kA*e[5mC]) [compound 548541],39
7,548542 (antisense eG*e[5mC]*kG*d[5mC]*d[5mC]*dA*dT*d[5mC]*d[5mC]*dT*dT*d[5mC]*dA*kA*kT*e[5mC]) [compound 548542],7
8,548543 (antisense eG*eA*kT*d[5mC]*d[5mC]*dA*d[5mC]*d[5mC]*d[5mC]*dA*dT*dG*dA*k[5mC]*k[5mC]*eT) [compound 548543],32
9,548544 (antisense eG*e[5mC]*kT*dG*dT*dG*dA*d[5mC]*dT*d[5mC]*dA*dG*dA*kT*k[5mC]*eA) [compound 548544],62
10,548545 (antisense e[5mC]*eT*k[5mC]*dT*dT*d[5mC]*dG*d[5mC]*dA*dT*dG*dG*dA*k[5mC]*kA*e[5mC]) [compound 548545],46
11,548546 (antisense eG*e[5mC]*k[5mC]*d[5mC]*dA*dA*dG*d[5mC]*d[5mC]*dT*dA*d[5mC]*dA*kT*kG*e[5mC]) [compound 548546],35
12,548548 (antisense eG*e[5mC]*kT*dT*dG*dT*dA*dG*dA*dA*dG*dG*dG*kA*kT*eT) [compound 548548],54
13,548549 (antisense eT*eG*kT*dG*d[5mC]*dA*dA*dT*d[5mC]*dA*dG*dG*dT*kG*kG*eA) [compound 548549],56
14,548550 (antisense e[5mC]*e[5mC]*kG*dG*d[5mC]*d[5mC]*dT*dG*dG*dA*dT*dA*d[5mC]*kA*kG*e[5mC]) [compound 548550],0
15,548551 (antisense e[5mC]*eG*kG*d[5mC]*d[5mC]*dA*dA*dT*dG*dG*dG*dA*dA*kA*kG*eG) [compound 548551],25
16,548552 (antisense eT*eG*kG*dA*dG*dG*dA*dG*dT*dA*dG*dG*dG*kA*kA*eT) [compound 548552],10
17,548553 (antisense e[5mC]*e[5mC]*k[5mC]*dG*dA*dA*dG*dA*dG*dT*d[5mC]*dA*dA*kG*kT*e[5mC]) [compound 548553],46
18,548554 (antisense eG*eT*kG*d[5mC]*dT*dG*d[5mC]*dA*dT*dT*dG*d[5mC]*dA*kT*kG*eA) [compound 548554],42
19,548555 (antisense eA*e[5mC]*kA*d[5mC]*dG*d[5mC]*d[5mC]*dA*dG*dG*dT*dG*dA*kA*kA*eA) [compound 548555],2
20,548556 (antisense eA*eT*kG*d[5mC]*dA*dT*dG*d[5mC]*d[5mC]*dT*dA*d[5mC]*d[5mC]*k[5mC]*kA*eA) [compound 548556],43
21,548559 (antisense eG*eA*kG*dA*d[5mC]*dT*dG*dA*dA*dG*d[5mC]*d[5mC]*d[5mC]*kT*k[5mC]*eA) [compound 548559],44
22,548560 (antisense e[5mC]*eA*k[5mC]*dT*dG*d[5mC]*d[5mC]*dT*dA*dG*dA*dA*dA*kG*kG*e[5mC]) [compound 548560],16
23,548561 (antisense eT*eG*kT*dA*dG*dT*dA*dT*d[5mC]*d[5mC]*dA*dG*dA*kG*kT*eA) [compound 548561],46
24,548562 (antisense eA*eG*kA*dT*dG*dA*d[5mC]*d[5mC]*dT*dG*d[5mC]*dA*dG*kA*kT*eG) [compound 548562],50
25,548563 (antisense eA*eA*kA*d[5mC]*d[5mC]*dA*dT*dG*dA*dA*dT*dT*dA*kG*kG*eT) [compound 548563],20

# Same assay, conditions: Table 28; HepaRG cells, 1,000 nM antisense oligonucleotide; human PKK mRNA
row,Substance,% inhibition [%]
1,548507 (antisense eA*eA*kA*d[5mC]*dT*d[5mC]*d[5mC]*dT*d[5mC]*dT*d[5mC]*dA*dA*kG*kG*e[5mC]) [compound 548507],53
2,548508 (antisense eG*e[5mC]*kA*d[5mC]*d[5mC]*dA*d[5mC]*d[5mC]*dA*dT*dG*d[5mC]*dG*kG*kT*eT) [compound 548508],43
3,548509 (antisense eT*eG*k[5mC]*dA*dG*dG*dG*d[5mC]*dT*dG*d[5mC]*dG*d[5mC]*kA*kG*eT) [compound 548509],41
4,548510 (antisense eT*eT*kA*dG*d[5mC]*d[5mC]*dA*d[5mC]*dT*d[5mC]*d[5mC]*dT*d[5mC]*kT*kT*eG) [compound 548510],30
5,548511 (antisense eA*eG*k[5mC]*dT*dA*dG*d[5mC]*dT*dG*dA*d[5mC]*d[5mC]*d[5mC]*k[5mC]*kA*eA) [compound 548511],16
6,548512 (antisense eT*e[5mC]*k[5mC]*dG*d[5mC]*d[5mC]*dT*dT*dT*dG*dG*dA*dT*kA*k[5mC]*eT) [compound 548512],49
7,548513 (antisense e[5mC]*e[5mC]*kT*dG*d[5mC]*dT*dG*dA*dT*dT*dG*dT*dG*kT*k[5mC]*eT) [compound 548513],16
8,548514 (antisense eT*e[5mC]*kG*dA*dG*dG*dA*d[5mC]*dA*dG*d[5mC]*d[5mC]*d[5mC]*k[5mC]*k[5mC]*eA) [compound 548514],40
9,548515 (antisense eA*e[5mC]*k[5mC]*d[5mC]*dG*dT*d[5mC]*dA*dG*d[5mC]*d[5mC]*dT*d[5mC]*kA*kG*e[5mC]) [compound 548515],59
10,548516 (antisense e[5mC]*eT*kT*dG*d[5mC]*d[5mC]*dT*dA*dT*dT*d[5mC]*dA*d[5mC]*k[5mC]*k[5mC]*e[5mC]) [compound 548516],49
11,548517 (antisense e[5mC]*eG*kG*dA*d[5mC]*dA*dA*dG*d[5mC]*d[5mC]*dT*dT*dA*k[5mC]*kA*eG) [compound 548517],43
12,548518 (antisense e[5mC]*eA*k[5mC]*dA*d[5mC]*dT*dT*dA*d[5mC]*d[5mC]*d[5mC]*d[5mC]*dG*k[5mC]*kT*e[5mC]) [compound 548518],12
13,548519 (antisense e[5mC]*e[5mC]*kT*d[5mC]*d[5mC]*d[5mC]*d[5mC]*dT*dT*dG*dT*dG*dT*kG*kT*e[5mC]) [compound 548519],31
14,548520 (antisense e[5mC]*e[5mC]*kG*d[5mC]*dT*dT*d[5mC]*d[5mC]*d[5mC]*dT*dG*dA*d[5mC]*kT*kG*eT) [compound 548520],43
15,548522 (antisense eA*eG*kG*dT*dA*dT*dT*dG*dA*d[5mC]*d[5mC]*dG*d[5mC]*k[5mC]*kA*eG) [compound 548522],55
16,548523 (antisense eG*eG*kT*dA*dA*dA*dT*d[5mC]*d[5mC]*dA*dT*d[5mC]*d[5mC]*k[5mC]*k[5mC]*eT) [compound 548523],44
17,548524 (antisense eG*e[5mC]*k[5mC]*d[5mC]*dG*dA*dT*d[5mC]*dA*d[5mC]*d[5mC]*dT*dT*kA*kG*eA) [compound 548524],45
18,548525 (antisense eG*eT*k[5mC]*dT*dA*dA*d[5mC]*dT*dG*dG*d[5mC]*d[5mC]*dT*kG*kG*e[5mC]) [compound 548525],2
19,548526 (antisense e[5mC]*eT*kA*dA*dG*d[5mC]*dT*dG*dT*dG*dT*d[5mC]*dT*k[5mC]*kA*eT) [compound 548526],26
20,548527 (antisense eT*eG*kT*dT*dT*d[5mC]*dA*dA*dG*dT*dG*d[5mC]*d[5mC]*kA*kG*eA) [compound 548527],50
21,548528 (antisense eT*eG*k[5mC]*dA*dG*dT*dG*dG*dT*d[5mC]*dA*dA*dG*k[5mC]*kA*eT) [compound 548528],32
22,548529 (antisense eG*e[5mC]*kG*dA*dT*dT*d[5mC]*d[5mC]*dT*dT*dG*d[5mC]*d[5mC]*kT*k[5mC]*eT) [compound 548529],56
23,548530 (antisense eA*eT*kA*dA*dT*dA*dG*dA*dG*dG*d[5mC]*dA*dG*k[5mC]*k[5mC]*eA) [compound 548530],50
24,548531 (antisense eG*eT*k[5mC]*dA*dG*dA*dA*dG*dG*d[5mC]*d[5mC]*dT*d[5mC]*kT*kT*eA) [compound 548531],21
25,548532 (antisense eT*eA*kT*dT*dT*dA*dT*d[5mC]*d[5mC]*dG*dA*d[5mC]*d[5mC]*kT*k[5mC]*eT) [compound 548532],34
26,548533 (antisense eG*eA*kG*dG*dT*dG*dG*dT*dT*dG*dG*dA*dG*k[5mC]*kT*eA) [compound 548533],9
27,548534 (antisense e[5mC]*eA*kG*dA*dT*d[5mC]*d[5mC]*d[5mC]*dA*dA*dT*dT*d[5mC]*kT*kT*e[5mC]) [compound 548534],22
28,548535 (antisense eG*eA*kG*dT*d[5mC]*dT*dT*dT*d[5mC]*d[5mC]*dA*dA*dT*k[5mC]*k[5mC]*eT) [compound 548535],13
